Assay results: publication PMC7054748, “The identification and characterisation of autophagy inhibitors from the published kinase inhibitor sets” (Biochemical Journal, 2020)
Several values for one entry are separate records, joined by “and”; a condition that tells them apart may be missing. Identical values can stand only once. Like-named read-outs stand apart in the source and are kept apart here. Values belong to the molecule of their own block, whether it stands above or below them.

Columns and labels:
ULK1 = molecular target: T1, ULK1 (Homo sapiens, UniProt O75385); experiment: ULK1 ADP Hunter Plus kinase activity assay; assay type: biochemical
T1 construct: purchased MRC PPU Reagents and Services, Dundee, Scotland
T1 sequence (O75385 1-1050): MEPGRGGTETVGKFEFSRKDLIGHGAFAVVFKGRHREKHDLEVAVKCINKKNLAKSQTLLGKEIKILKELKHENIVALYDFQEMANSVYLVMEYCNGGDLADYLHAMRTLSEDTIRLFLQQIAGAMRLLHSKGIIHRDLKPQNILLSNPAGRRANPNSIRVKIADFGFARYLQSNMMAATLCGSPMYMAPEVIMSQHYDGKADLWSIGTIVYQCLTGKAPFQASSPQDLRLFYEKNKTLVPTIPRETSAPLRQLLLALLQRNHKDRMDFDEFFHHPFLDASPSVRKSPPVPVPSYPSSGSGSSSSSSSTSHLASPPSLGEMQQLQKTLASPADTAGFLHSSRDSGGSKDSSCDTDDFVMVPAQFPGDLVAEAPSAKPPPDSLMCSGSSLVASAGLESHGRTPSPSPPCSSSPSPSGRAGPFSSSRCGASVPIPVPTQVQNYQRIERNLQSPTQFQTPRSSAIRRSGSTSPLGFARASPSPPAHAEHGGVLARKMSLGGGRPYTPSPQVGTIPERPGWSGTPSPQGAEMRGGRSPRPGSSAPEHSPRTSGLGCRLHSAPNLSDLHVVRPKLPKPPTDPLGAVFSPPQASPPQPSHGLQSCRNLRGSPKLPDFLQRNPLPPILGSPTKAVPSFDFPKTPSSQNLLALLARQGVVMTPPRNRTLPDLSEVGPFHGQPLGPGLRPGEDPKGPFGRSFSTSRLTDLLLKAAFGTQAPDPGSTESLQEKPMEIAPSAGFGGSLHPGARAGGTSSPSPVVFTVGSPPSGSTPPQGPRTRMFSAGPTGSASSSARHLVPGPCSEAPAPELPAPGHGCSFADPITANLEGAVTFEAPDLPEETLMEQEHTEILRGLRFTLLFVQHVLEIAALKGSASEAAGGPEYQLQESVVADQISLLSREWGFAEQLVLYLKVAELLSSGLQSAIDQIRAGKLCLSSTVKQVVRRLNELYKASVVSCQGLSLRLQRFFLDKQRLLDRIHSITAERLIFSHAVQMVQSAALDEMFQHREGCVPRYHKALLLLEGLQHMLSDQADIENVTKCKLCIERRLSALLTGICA

VPS34 (WIPI2 puncta) = experiment: Cellular VPS34 activity: WIPI2 puncta immunofluorescence in U2OS cells; assay type: cell-based, human
Description: (§1) U2OS (human osteosarcoma-derived) cells were cultured in DMEM supplemented with 10% foetal bovine serum, 100 U/ml Penicillin and […] L-glutamine. Cells were pre-treated with compounds at the indicated concentrations for 60 min followed by treatments with EBSS or EBSS combined with/without 50 nM Bafilomycin A1 (Enzo Life Sciences) for a further 60 or 120 min with/without inhibitors, as indicated in figures/figure legends.
(§2) Prior to immunofluorescence, cells were grown on glass coverslips to ∼60% confluency. Cells were washed in PBS prior to fixation with 3.7% PFA/10 mM HEPES pH 7.0 at room temperature for 20 min. PFA was quenched using DMEM/10 mM HEPES pH 7.0/0.02% NaN3, followed by permeabilisation with 0.2% NP-40 in PBS for 5 min, followed by blocking with 1% BSA/PBS/0.02% NaN3. Primary antibody incubation was at room temperature for 60 min, followed by two 10-minute washes, then fluorescent secondary antibody incubation for 30 min and further washes (all in blocking buffer) before mounting onto glass slides. A wide field Nikon TS microscope was used for image capturing.
(§3) Quantification of western blots was performed with band densitometry analysis using ImageJ. Quantification of LC3 puncta was performed using either the ITCN plugging in ImageJ or Volocity. One-way or two-way Anova (using GraphPad Prism) followed by a post-hoc test, was used for statistical analysis of western blots and immunofluorescence as indicated in figure legends.

AMPK α1β2ɣ1 = AMPK α1β2ɣ1 (Homo sapiens, UniProt O43741+P54619+Q13131); experiment: AMPK ADP Hunter Plus kinase activity assay
VPS34 = VPS34 (Homo sapiens, UniProt Q8NEB9); experiment: VPS34 ADP Hunter Plus kinase activity assay; conditions: for Mechanism of inhibition of VPS34 with respect to ATP: varying ATP below 200 µM, Michaelis–Menten and Lineweaver–Burk plots; for Mechanism of inhibition of VPS34 with respect to PI:PS: varying PI:PS below 12 µM
ULK1 (pS318 ATG13) = experiment: Cellular ULK1 kinase activity: pS318 ATG13 western blot in U2OS cells; assay type: cell-based, human; conditions: for Effect on starvation-induced increase in pS318 ATG13: 5 µM, 60 min pre-treatment then 60 min EBSS, U2OS; for Cellular ULK1 inhibition compared with GW837331X and GW406108X: 2 µM MRT68921, 5 µM SBI0206965, 120 min EBSS, U2OS western blot (Supplementary Figure S6C)
Description: as §1
(§4) Lysates were then spun at 20 000×g for 10 min and the supernatant was collected for protein content estimation using Protein Assay Dye Reagent Concentrate from Bio-Rad. 4× LDS was added to the lysate (final dilution 1×) prior to heating at 95°C for 5 min. Electrophoresis and transfer to PVDF membranes was performed using standard protocols. Membranes were blocked in 5% milk in TBS-T prior to incubation with primary antibodies (in 5% milk/TBS-T for ULK1, pS555 (human S556) ULK1, pS757 (human S758) ULK1, pS318-ATG13, ATG13, and in 5% BSA/TBS-T for LC3 and α-Tubulin) under rotation overnight at 4°C followed by washes in TBS-T and incubation with HRP-conjugated secondary antibodies (in 5% milk in TBS-T) for 60 min at room temperature. Membranes were washed in TBS-T before application of ECL reagent (GE healthcare) and development on hypersensitive X-ray films (GE healthcare) (Figures 5A, 6C and Supplementary Figure S7C) or using BIO-RAD Clarity^TM western blotting substrate (Supplementary Figure S6C and Supplementary Figure S7A) and a BIO-RAD ChemiDoc^TM imaging system.
as §3

LC3 flux in U2OS cells = experiment: Autophagic flux: LC3-II western blot with/without BafA1 in U2OS cells; assay type: cell-based, human; conditions: for Effect on starvation-induced LC3 flux: 5 µM, 60 min pre-treatment then 60 min EBSS ± 50 nM BafA1, U2OS
Description: as §1
as §4, with “Prior to western blot analysis, cells were washed twice in ice-cold PBS and lysed in buffer containing 50 mM HEPES pH 7.4, 150 mM NaCl, 1 mM EDTA, 10% Glycerol, 0.5% NP-40, 1 mM DTT, supplemented with phosphatase inhibitors (1.15 mM sodium molybdate, 4 mM sodium tartrate, 0.01 M β-glycerophosphate, 1 mM sodium fluoride, 1 mM sodium orthovanadate) and protease inhibitor tablets (Roche) according to manufacturer's instructions. Lysates” for “Lysates”
as §3

LC3 puncta in U2OS cells = experiment: Endogenous LC3 puncta immunofluorescence in U2OS cells; assay type: cell-based, human; conditions: for Enlarged/stalled LC3 puncta (autophagosomes) phenotype: 2 µM MRT68921, 5 µM others, 60 min pre-treatment then 120 min EBSS; for Effect on EBSS-induced increase in LC3 puncta formation: 5 µM
Description: as §1, §2, §3

mTOR (ULK1 pS758) = experiment: Upstream mTOR activity: ULK1 pS758 western blot in U2OS cells; assay type: cell-based, human; conditions: for Effect on mTORC1 activity (pS758 ULK1): 100 nM (VPS34-IN1 500 nM), 60 min pre-treatment, ± EBSS 60 min
Description: as §1, §4, §3

AMPK (ULK1 pS556) = experiment: Upstream AMPK activity: ULK1 pS556 western blot in U2OS cells; assay type: cell-based, human; conditions: for Effect on AMPK activity (pS556 ULK1): 100 nM (VPS34-IN1 500 nM), 60 min pre-treatment, ± EBSS 60 min
Description: as §1, §4, §3

[1] = test system: kinases (human kinome panel); parameters: method as in ChEMBL database; conditions: value = the kinase inhibited over 50%; ref ChEMBL database; cited from earlier work
[2] = resynthesized samples, mean potency in parenthesis, n = 5, read-out: IC50 against ULK1 (converted)
[3] = IC50 against VPS34, resynthesized samples, mean potency in parenthesis, n = 5
[4] = pIC50 against VPS34, original PKIS samples, concentration-dependent retest of screen hits

Chain of VPS34 (Q8NEB9 whole entry): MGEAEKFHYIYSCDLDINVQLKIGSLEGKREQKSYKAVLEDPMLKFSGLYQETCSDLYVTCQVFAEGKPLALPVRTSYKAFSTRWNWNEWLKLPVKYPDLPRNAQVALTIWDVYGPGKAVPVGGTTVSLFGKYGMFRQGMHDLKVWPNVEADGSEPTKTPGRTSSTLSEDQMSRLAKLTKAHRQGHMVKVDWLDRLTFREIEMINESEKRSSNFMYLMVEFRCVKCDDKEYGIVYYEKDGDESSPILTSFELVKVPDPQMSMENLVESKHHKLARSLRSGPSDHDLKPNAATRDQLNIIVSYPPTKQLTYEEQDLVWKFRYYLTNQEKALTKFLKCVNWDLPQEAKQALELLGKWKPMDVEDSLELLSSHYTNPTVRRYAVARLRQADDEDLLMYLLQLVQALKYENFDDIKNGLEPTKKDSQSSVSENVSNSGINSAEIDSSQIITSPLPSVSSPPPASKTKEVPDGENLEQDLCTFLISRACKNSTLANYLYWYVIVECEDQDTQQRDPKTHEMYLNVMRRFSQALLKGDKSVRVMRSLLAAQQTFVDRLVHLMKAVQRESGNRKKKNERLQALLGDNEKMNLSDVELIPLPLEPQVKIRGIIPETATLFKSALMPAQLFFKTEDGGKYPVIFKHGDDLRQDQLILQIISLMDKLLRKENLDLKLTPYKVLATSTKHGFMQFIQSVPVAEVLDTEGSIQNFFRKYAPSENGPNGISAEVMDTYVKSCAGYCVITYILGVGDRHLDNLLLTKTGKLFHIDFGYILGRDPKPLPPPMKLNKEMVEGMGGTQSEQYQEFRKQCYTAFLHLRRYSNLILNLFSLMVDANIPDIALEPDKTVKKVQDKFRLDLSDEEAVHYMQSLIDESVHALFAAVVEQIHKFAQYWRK
Chain of AMPK α1β2ɣ1 (Q13131 whole entry): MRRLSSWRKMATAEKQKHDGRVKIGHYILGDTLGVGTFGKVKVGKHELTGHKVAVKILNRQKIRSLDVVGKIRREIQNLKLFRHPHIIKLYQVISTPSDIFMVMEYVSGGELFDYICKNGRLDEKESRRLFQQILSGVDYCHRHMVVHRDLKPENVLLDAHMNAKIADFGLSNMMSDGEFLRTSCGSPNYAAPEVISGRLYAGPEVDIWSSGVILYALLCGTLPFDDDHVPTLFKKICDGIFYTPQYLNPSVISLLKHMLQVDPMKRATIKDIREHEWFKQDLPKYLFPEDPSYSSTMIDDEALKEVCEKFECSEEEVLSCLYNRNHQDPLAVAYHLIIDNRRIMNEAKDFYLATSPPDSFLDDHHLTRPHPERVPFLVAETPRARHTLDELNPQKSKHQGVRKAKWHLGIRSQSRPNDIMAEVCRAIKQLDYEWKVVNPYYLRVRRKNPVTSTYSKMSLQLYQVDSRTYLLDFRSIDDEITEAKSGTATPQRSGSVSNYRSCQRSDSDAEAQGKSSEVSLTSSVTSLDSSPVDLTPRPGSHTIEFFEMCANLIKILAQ
Chain of AMPK α1β2ɣ1 (O43741 whole entry partner): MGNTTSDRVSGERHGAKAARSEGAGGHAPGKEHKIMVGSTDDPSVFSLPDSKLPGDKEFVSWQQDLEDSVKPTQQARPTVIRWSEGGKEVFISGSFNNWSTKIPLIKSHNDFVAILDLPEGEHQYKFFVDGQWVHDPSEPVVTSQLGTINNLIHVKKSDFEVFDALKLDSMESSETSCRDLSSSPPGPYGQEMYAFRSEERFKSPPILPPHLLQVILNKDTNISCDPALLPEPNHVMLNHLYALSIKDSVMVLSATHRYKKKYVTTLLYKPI
Chain of AMPK α1β2ɣ1 (P54619 whole entry partner): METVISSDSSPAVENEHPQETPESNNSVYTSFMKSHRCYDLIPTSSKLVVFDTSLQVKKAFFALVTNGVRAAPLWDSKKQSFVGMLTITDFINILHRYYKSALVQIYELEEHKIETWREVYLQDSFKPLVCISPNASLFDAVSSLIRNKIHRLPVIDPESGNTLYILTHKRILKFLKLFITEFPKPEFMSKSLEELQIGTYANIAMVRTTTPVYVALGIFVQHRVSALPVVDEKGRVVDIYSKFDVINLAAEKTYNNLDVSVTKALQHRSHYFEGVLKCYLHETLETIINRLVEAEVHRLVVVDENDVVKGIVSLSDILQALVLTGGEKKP

IC50 (ULK1; [2]): 0.603 µM | IC50 (AMPK α1β2ɣ1): 2.51 µM | IC50 (VPS34; IC50 against VPS34, resynthesized sample): 1.2 µM | IC50 (VPS34; [3]): 1.2 µM | IC50 (VPS34; [4]): < 1 µM | Mechanism of inhibition of VPS34 with respect to ATP (VPS34): primarily ATP competitive inhibition | Mechanism of inhibition of VPS34 with respect to PI:PS (VPS34): clear non-competitive inhibition
Compound: O=S(=O)(c1ccc(-c2ccnc3[nH]ccc23)cc1)N1CCCC1 [GSK846226A]
Concentration with inhibitory effect on WIPI2 puncta formation (VPS34 (WIPI2 puncta); EBSS, not at lower concentrations): 5 µM

IC50 (AMPK α1β2ɣ1): 0.347 µM | IC50 (VPS34; pIC50 against VPS34, resynthesized samples, 50 µM ATP (KM app), mean ± SD, n = 5): 26.3 µM
Compound: CC(C)(CO)CNC(=O)c1ccc2c(c1)/C(=N/Nc1ccc(S(N)(=O)=O)cc1)C(=O)N2 [GW301784X]
Effect on starvation-induced increase in pS318 ATG13 (ULK1 (pS318 ATG13)): did not have a significant effect | Effect on starvation-induced LC3 flux (LC3 flux in U2OS cells): did not block LC3 flux

IC50 (VPS34; [3]): 0.457 µM
Compound: O=C1Nc2ccc(C(=O)c3ccco3)cc2C1=Cc1cc(Cl)c(O)c(Cl)c1 [GW406108X]
Effect on starvation-induced increase in pS318 ATG13 (ULK1 (pS318 ATG13)): significantly reduced | Effect on starvation-induced LC3 flux (LC3 flux in U2OS cells): significantly blocked | Enlarged/stalled LC3 puncta (autophagosomes) phenotype (LC3 puncta in U2OS cells): did not show this phenotype | Effect on EBSS-induced increase in LC3 puncta formation (LC3 puncta in U2OS cells): abolished

IC50 (ULK1; [2]): 8.71 µM | IC50 (AMPK α1β2ɣ1): 3.16 µM | IC50 (VPS34; [3]): 0.0905 µM and 0.091 µM | IC50 (VPS34; [4]): < 1 µM | Mechanism of inhibition of VPS34 with respect to ATP (VPS34): primarily ATP competitive inhibition | Mechanism of inhibition of VPS34 with respect to PI:PS (VPS34): clear non-competitive inhibition
Compound: O=C1Nc2ccc(-c3cccnc3)cc2C1=Cc1cc(Br)c(O)c(Br)c1 [GW429374A]
Effect on LC3 flux under EBSS starvation (LC3 flux in U2OS cells; 100 nM, 60 min pre-treatment then 60 min EBSS, U2OS): significantly reduced LC3 flux | Effect on EBSS-induced WIPI2 puncta (VPS34 (WIPI2 puncta); 100 nM, 60 min pre-treatment then 60 min EBSS, vs EBSS only): significantly reduced | Concentration working in cells (WIPI2 puncta reduction) (VPS34 (WIPI2 puncta); EBSS, as low as): ≤ 100 nM | Effect on mTORC1 activity (pS758 ULK1) (mTOR (ULK1 pS758)): unaffected | Effect on AMPK activity (pS556 ULK1) (AMPK (ULK1 pS556)): unaffected

IC50 (ULK1; original PKIS samples, concentration-dependent retest of screen hits, read-out: pIC50 against ULK1 (converted)): < 1 µM | IC50 (ULK1; [2]): 0.646 µM | Mechanism of inhibition of ULK1 with respect to ATP (ULK1; varying ATP below 600 µM, Michaelis–Menten and Lineweaver–Burk plots): primarily ATP competitive inhibition | Mechanism of inhibition of ULK1 with respect to MBP (ULK1; varying MBP substrate): clear non-competitive inhibition | IC50 (AMPK α1β2ɣ1): 2.34 µM | IC50 (VPS34; [3]): > 100 µM
Compound: COc1cc(Nc2ncc3c(C)nc(-c4cccc(C(F)(F)F)c4)n3n2)cc(OC)c1OC [GW837331X]
Effect on starvation-induced increase in pS318 ATG13 (ULK1 (pS318 ATG13)): significantly reduced | Effect on starvation-induced LC3 flux (LC3 flux in U2OS cells): significantly blocked | Enlarged/stalled LC3 puncta (autophagosomes) phenotype (LC3 puncta in U2OS cells): did not show this phenotype | Effect on EBSS-induced increase in LC3 puncta formation (LC3 puncta in U2OS cells): abolished | Effect on mTOR activity (ULK1 pS758 levels) (mTOR (ULK1 pS758); 5 µM): without affecting mTOR or AMPK activity | Effect on AMPK activity (ULK1 pS556 levels) (AMPK (ULK1 pS556); 5 µM): without affecting mTOR or AMPK activity | Kinases that are inhibited over 50% (descending order) [1]: NEK9 and PLK1 and FMS and SRC and MELK and EphB2 and EphA4

Compound: CN1CCc2cc(Nc3ncc(C4CC4)c(NCCCNC(=O)C4CCC4)n3)ccc2C1 [MRT68921, reference compound]
Cellular ULK1 inhibition compared with GW837331X and GW406108X (ULK1 (pS318 ATG13)): inhibited ULK1 more potently | Enlarged/stalled LC3 puncta (autophagosomes) phenotype (LC3 puncta in U2OS cells): larger than those formed with EBSS alone

Compound: CNC(=O)c1ccccc1Oc1nc(Nc2cc(OC)c(OC)c(OC)c2)ncc1Br [SBI0206965, reference compound]
Cellular ULK1 inhibition compared with GW837331X and GW406108X (ULK1 (pS318 ATG13)): inhibited ULK1 more potently | Enlarged/stalled LC3 puncta (autophagosomes) phenotype (LC3 puncta in U2OS cells): larger than those formed with EBSS alone

Compound: CC(C)(O)CNc1ncc(-c2ccnc(Nc3ccnc(Cl)c3)n2)c(CC2CC2)n1 [VPS34-IN1, reference compound]
Concentration blocking EBSS-induced autophagy (LC3) flux (LC3 flux in U2OS cells; U2OS, EBSS + 50 nM BafA1, as low as, greater effect at 100 nM): ≤ 10 nM | Effect on mTORC1 activity (pS758 ULK1) (mTOR (ULK1 pS758)): unaffected | Effect on AMPK activity (pS556 ULK1) (AMPK (ULK1 pS556)): unaffected
